Drawing on PubChem BioAssay AID330 (DTP/NCI, 2004), this text covers T/C for 24 compounds.

Each structure is given as a SMILES string. Values joined by “and” are separate entries in the source; they are usually repeats but may differ in a detail not shown here. Equal values may be shown once. Inconclusive results and toxic doses are left out. Peptide text beside a SMILES is read from it.

In the test the test system is P388 leukemia ip, CD2F1 mice, survival T/C. Put plainly: NCI In Vivo Anticancer Drug Screen. Data for tumor model P388 Leukemia (intraperitoneal) in CD2F1 (CDF1) mice. The following applies: endpoint: median survival time, higher = longer survival. Put shortly: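 Mice carrying the transplanted tumor received test compound or vehicle. Survival was recorded in each group, and the value is the treated-group measurement divided by that of the vehicle-treated control group.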

The mark [1] stands for this setting: dose: 60.0 mg/kg/injection, schedule: Q01DX005 (ip), vehicle: saline with Tween-80.
The mark [2] stands for this setting: dose: 50.0 mg/kg/injection, schedule: Q01DX009 (ip), vehicle: saline.
The mark [3] stands for this setting: dose: 100.0 mg/kg/injection, schedule: Q01DX009 (ip), vehicle: saline.
Where [4] appears, read: dose: 200.0 mg/kg/injection, schedule: Q01DX009 (ip), vehicle: saline.
[5] abbreviates: dose: 12.5 mg/kg/injection, schedule: Q01DX009 (ip), vehicle: water.
Setting [6] is: dose: 50.0 mg/kg/injection, schedule: Q01DX005 (ip), vehicle: Klucel (hydroxypropylcellulose) (HPC).
Where [7] appears, read: dose: 100.0 mg/kg/injection, schedule: Q01DX005 (ip), vehicle: Klucel (hydroxypropylcellulose) (HPC).
Setting [8] is: dose: 200.0 mg/kg/injection, schedule: Q01DX005 (ip), vehicle: Klucel (hydroxypropylcellulose) (HPC).
Setting [9] is: dose: 50.0 mg/kg/injection, schedule: Q01DX009 (ip), vehicle: Klucel (hydroxypropylcellulose) (HPC).
Where [10] appears, read: dose: 100.0 mg/kg/injection, schedule: Q01DX009 (ip), vehicle: Klucel (hydroxypropylcellulose) (HPC).
The mark [11] stands for this setting: dose: 200.0 mg/kg/injection, schedule: Q01DX009 (ip), vehicle: Klucel (hydroxypropylcellulose) (HPC).
Where [12] appears, read: dose: 50.0 mg/kg/injection, schedule: Q01DX009 (ip), vehicle: saline with Tween-80.
Setting [13] is: dose: 100.0 mg/kg/injection, schedule: Q01DX009 (ip), vehicle: saline with Tween-80.
Setting [14] is: dose: 200.0 mg/kg/injection, schedule: Q01DX009 (ip), vehicle: saline with Tween-80.

Consider `CCOc1cc(/C=N\Nc2nnc(C)n2N)c(C)cc1N(CCCl)CCCl`, for which the T/C is, setting by setting: (dose: 0.22 mg/kg/injection, schedule: Q01DX009 (ip), vehicle: saline with Tween-80) 110 % of control; (dose: 0.33 mg/kg/injection, schedule: Q01DX009 (ip), vehicle: saline with Tween-80) 105 % of control; (dose: 0.5 mg/kg/injection, schedule: Q01DX009 (ip), vehicle: saline with Tween-80) 110 % of control; (dose: 0.75 mg/kg/injection, schedule: Q01DX009 (ip), vehicle: saline with Tween-80) 120 % of control; (dose: 1.25 mg/kg/injection, schedule: Q04DX003 (ip), vehicle: saline) 100 % of control; (dose: 2.0 mg/kg/injection, schedule: Q01DX009 (ip), vehicle: saline with Tween-80) 160 % of control. The T/C (dose: 2.5 mg/kg/injection, schedule: Q04DX003 (ip), vehicle: saline) is 100 % of control; the T/C (dose: 4.0 mg/kg/injection, schedule: Q01DX009 (ip), vehicle: saline with Tween-80) was 185 % of control; the T/C (dose: 5.0 mg/kg/injection, schedule: Q04DX003 (ip), vehicle: saline) was 103 % of control.

For `O=c1c2[nH]c3ccccc3sc=2c(=O)n1-c1ccc(Cl)cc1`, the T/C runs as follows: under setting [1], 103 % of control; (dose: 120.0 mg/kg/injection, schedule: Q01DX005 (ip), vehicle: saline with Tween-80) 98 % of control; (dose: 240.0 mg/kg/injection, schedule: Q01DX005 (ip), vehicle: saline with Tween-80) 94 % of control.

In the case of `CSCC(N)CO` (configuration not stated), the T/C under setting [2] was 110 % of control, the T/C under setting [3] was 105 % of control and the T/C under setting [4] is 101 % of control.

With `CCOP(=O)(c1ccccc1)N1CCOCC1` (configuration not stated), the T/C (dose: 100.0 mg/kg/injection, schedule: Q04DX003 (ip), vehicle: saline) is 105 % of control; the T/C (dose: 200.0 mg/kg/injection, schedule: Q04DX003 (ip), vehicle: saline) was 108 % of control; the T/C (dose: 400.0 mg/kg/injection, schedule: Q04DX003 (ip), vehicle: saline) was 95 % of control.

As to `CP(=O)(NN)c1ccccc1` (configuration not stated), the T/C runs as follows: under setting [5], 89 % of control; (dose: 25.0 mg/kg/injection, schedule: Q01DX009 (ip), vehicle: water) 96 % of control; (dose: 50.0 mg/kg/injection, schedule: Q01DX009 (ip), vehicle: water) 101 % of control.

`O=C1CCC(=O)N1CCCCCCN1C(=O)CCC1=O`: the T/C under setting [6] is 90 % of control; the T/C under setting [7] is 99 % of control; the T/C under setting [8] was 98 % of control; the T/C (dose: 400.0 mg/kg/injection, schedule: Q01DX005 (ip), vehicle: Klucel (hydroxypropylcellulose) (HPC)) was 89 % of control.

`Cc1[nH]nc2c(Cc3ccco3)n[nH]c(=O)c12`: the T/C was 101 % of control under setting [9], 100 % of control under setting [10] and 100 % of control under setting [11].

Regarding `CN(C)c1ccc(NN=O)nc1`, the T/C was 122 % of control (dose: 1.56 mg/kg/injection, schedule: Q01DX009 (ip), vehicle: water); 150 % of control (dose: 6.25 mg/kg/injection, schedule: Q01DX009 (ip), vehicle: water); 110 % of control under setting [5].

Take `C=C(C)c1nc2c(=O)nc(N)nc-2n(O)c1C`: the T/C (dose: 37.5 mg/kg/injection, schedule: Q01DX009 (ip), vehicle: saline with Tween-80) is 99 % of control and the T/C (dose: 150.0 mg/kg/injection, schedule: Q01DX009 (ip), vehicle: saline with Tween-80) is 108 % of control.

In the case of `NCCCCC(NC(=O)C(N)Cc1cnc[nH]1)C(=O)O` (stereo not drawn) (H-His-Lys-OH; configuration not given here), the T/C (dose: 50.0 mg/kg/injection, schedule: Q01DX005 (ip), vehicle: saline) is 99 % of control; the T/C (dose: 100.0 mg/kg/injection, schedule: Q01DX005 (ip), vehicle: saline) was 108 % of control; the T/C (dose: 200.0 mg/kg/injection, schedule: Q01DX005 (ip), vehicle: saline) is 100 % of control.

Consider `CCCCCCCCSC(=O)n1cc(F)c(=O)[nH]c1=O`, for which the T/C reads like this: (dose: 15.0 mg/kg/injection, schedule: Q01DX005 (ip), vehicle: saline with Tween-80) 103 % of control; (dose: 30.0 mg/kg/injection, schedule: Q01DX005 (ip), vehicle: saline with Tween-80) 120 % of control; under setting [1], 120 % of control.

As to `Cc1ccc(S(=O)(=O)N(C)C=O)cc1`, the T/C reads like this: under setting [12], 100 % of control; under setting [13], 103 % of control; under setting [14], 101 % of control.

Consider `O=S(=O)(O)CCCBr`, for which the T/C under setting [13] was 100 % of control; the T/C under setting [14] is 104 % of control; the T/C (dose: 400.0 mg/kg/injection, schedule: Q01DX009 (ip), vehicle: saline with Tween-80) is 95 % of control.

On to `Cc1ccc(S(=O)(=O)NCCN(C)C)cc1`, for which the T/C under setting [9] is 99 % of control; the T/C under setting [10] is 99 % of control; the T/C under setting [11] was 102 % of control; the T/C (dose: 400.0 mg/kg/injection, schedule: Q01DX009 (ip), vehicle: Klucel (hydroxypropylcellulose) (HPC)) is 101 % of control.

As to `O=[N+]([O-])c1cccc2nc(Cl)ccc12`, the T/C by setting is: (dose: 25.0 mg/kg/injection, schedule: Q01DX009 (ip), vehicle: other) 93 % of control; (dose: 50.0 mg/kg/injection, schedule: Q01DX009 (ip), vehicle: other) 93 % of control; (dose: 100.0 mg/kg/injection, schedule: Q01DX009 (ip), vehicle: other) 98 % of control.

Regarding `CS(C)(=O)=Nc1ccc(Br)cc1`, the T/C is 98 % of control (dose: 100.0 mg/kg/injection, schedule: Q04DX002 (ip), vehicle: saline with Tween-80); 98 % of control (dose: 200.0 mg/kg/injection, schedule: Q04DX002 (ip), vehicle: saline with Tween-80); 103 % of control (dose: 400.0 mg/kg/injection, schedule: Q04DX002 (ip), vehicle: saline with Tween-80).

Consider `O=C(O)c1cc2cc3c(cc2c2ccccc12)OCO3`, for which the T/C is, setting by setting: under setting [6], 100 % of control; under setting [7], 106 % of control; under setting [8], 108 % of control.

Consider `COc1ccc2c(c1)CCC1C2=CCP1(C)=O` (configuration not stated), for which the T/C by setting is: (dose: 25.0 mg/kg/injection, schedule: Q01DX009 (ip), vehicle: saline) 97 % of control; under setting [2], 101 % of control; under setting [3], 93 % of control; under setting [4], 91 % of control.

As to `C=C(C)/C=N/O`, the T/C is 113 % of control under setting [6], 104 % of control under setting [7] and 106 % of control under setting [8].

On to `O=Cc1ccc(O)c(CN2CCCCC2)c1`, for which the T/C is 109 % of control (dose: 6.25 mg/kg/injection, schedule: Q04DX003 (ip), vehicle: saline); 100 % of control (dose: 12.5 mg/kg/injection, schedule: Q04DX003 (ip), vehicle: saline); 100 % of control (dose: 25.0 mg/kg/injection, schedule: Q04DX003 (ip), vehicle: saline).

`Nc1ccc2nc(N)sc2c1`: the T/C is, setting by setting: under setting [2], 100 % of control; under setting [3], 93 % of control; under setting [4], 101 % of control.

Turning to `NC(=S)c1cccc(C=O)n1`, the T/C is 99 % of control (dose: 25.0 mg/kg/injection, schedule: Q01DX009 (ip), vehicle: saline with Tween-80); 99 % of control under setting [12]; 110 % of control (dose: 50.0 mg/kg/injection, schedule: Q04DX003 (ip), vehicle: Klucel (hydroxypropylcellulose) (HPC)); 97 % of control under setting [13]; 112 % of control (dose: 100.0 mg/kg/injection, schedule: Q04DX003 (ip), vehicle: Klucel (hydroxypropylcellulose) (HPC)); 114 % of control (dose: 200.0 mg/kg/injection, schedule: Q04DX003 (ip), vehicle: Klucel (hydroxypropylcellulose) (HPC)).

On to `CC(C)=NNC(N)=S`, for which the T/C is, setting by setting: (dose: 12.5 mg/kg/injection, schedule: Q04DX003 (ip), vehicle: Klucel (hydroxypropylcellulose) (HPC)) 93 % of control; (dose: 25.0 mg/kg/injection, schedule: Q04DX003 (ip), vehicle: Klucel (hydroxypropylcellulose) (HPC)) 100 % of control.

As to `C1CN2CCN1CC2`, the T/C reads like this: under setting [2], 99 % of control and 105 % of control; under setting [3], 94 % of control and 108 % of control; under setting [4], 103 % of control and 99 % of control.
